Read-outs that look alike come from different tables or passages of the source.
Assays:
[1] = physchem
[2] = tested on: Sphaerotheca fuliginea; assay: Example D: in vivo test on Sphaerotheca fuliginea (powdery mildew on cucumber); conditions: Podosphaera fuliginea, 288 h, cucumber plants sprayed 24 hours before inoculation, scored after 12 days, read-out: % Wirkungsgrad
Method: In Vivo Test on Sphaerotheca Fuliginea (Powdery Mildew on Cucumber) An aqueous suspension of the active substance was prepared by homogenization of a mixture of acetone/Tween/dimethyl sulphoxide and subsequent dilution with water to the desired concentration. Cucumber plants (variety: Vert petit de Paris) are sown in cultivation dishes on a peat-pozzolanic earth substrate (50/50) at 20/23° C. and at the cotyledon stage Z10 sprayed with the aqueous suspension described above. As a control, plants are sprayed with an aqueous solution with no active substance. After 24 hours the plants are inoculated by spraying with an aqueous suspension of Sphaerotheca fuliginea spores (100,000 spores per ml). The spores are derived from a contaminated plant. The inoculated cucumber plants are incubated at ca. 20/25° C. at a relative atmospheric humidity of 60/70%. After 12 days they are scored in comparison with the control plants.

[3] = tested on: Peronospora parasitica; assay: Example A: in vivo test on Peronospora parasitica (downy mildew on white cabbage); conditions: Hyaloperonospora parasitica, 120 h, cabbage plants sprayed 24 hours before inoculation, scored after 5 days, read-out: % Wirkungsgrad
Method: In Vivo Test on Peronospora Parasitica (Downy Mildew on White Cabbage) An aqueous suspension of the active substance was prepared by homogenization of a mixture of acetone/Tween (dispersant)/dimethyl sulphoxide (DMSO) and subsequent dilution with water to the desired concentration. Cabbage plants (variety: Eminence) are sown in cultivation dishes on a peat-pozzolanic earth substrate (50/50) at 18-20° C. and sprayed at the cotyledon stage with the aqueous suspension described above. As a control, plants are sprayed with an aqueous solution with no active substance. After 24 hours, the plants are inoculated by spraying with an aqueous suspension of Peronospora parasitica spores (50,000 spores per ml). The spores are derived from infected plants. The inoculated cabbage plants are incubated for 5 days at ca. 20° C. in a moist atmosphere. After 5 days, they are scored in comparison with the control plants.

[4] = tested on: Mycosphaerella graminicola; assay: Example G: in vivo test on Mycosphaerella graminicola (wheat leaf blotch disease); conditions: Zymoseptoria tritici, wheat plants sprayed 24 hours before inoculation, scored after 21 to 28 days, read-out: % Wirkungsgrad
Method: In Vivo Test on Mycosphaerella Graminicola (Wheat Leaf Blotch Disease) An aqueous suspension of the active substance was prepared by homogenization of a mixture of acetone/Tween/dimethyl sulphoxide and subsequent dilution with water to the desired concentration. Wheat plants (variety: Scipion) are sown in cultivation dishes on a peat-pozzolanic earth substrate (50/50) at 12° C. and sprayed at the first-leaf stage (10 cm size) with the aqueous suspension described above. As a control, plants are sprayed with an aqueous solution with no active substance. After 24 hours the plants are inoculated by spraying with an aqueous suspension of Mycosphaerella graminicola spores (500,000 spores per ml). The spores are derived from a 7 day-old culture. […] After 21 to 28 days they are scored in comparison with the control plants.

[5] = tested on: Alternaria solani; assay: Example M: in vivo test on Alternaria solani (leaf blotch disease/tomato/protective); conditions: 168 h, tomato, protective, 500 ppm active substance, assessed 7 days after inoculation, read-out: % Wirkungsgrad (activity level)
Procedure, shortened: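 Protective test: young tomato plants sprayed with active substance (in DMF with alkylaryl polyglycol ether emulsifier, diluted in water) at the stated dosage, then inoculated with Alternaria solani. Disease assessed 7 days after inoculation.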

[6] = tested on: Sphaerotheca fuliginea; assay: Example L: in vivo test on Sphaerotheca fuliginea (powdery mildew on cucumber/protective); conditions: Podosphaera fuliginea, 168 h, cucumber, protective, assessment 7 days after inoculation, read-out: % Wirkungsgrad
Procedure, shortened: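 Young cucumber plants sprayed at stated dosage with compound in DMF/alkylaryl polyglycol ether emulsifier diluted in water; inoculated with S. fuliginea spores one day later. Kept in greenhouse at 70% relative humidity, 23° C; protective activity assessed 7 days after inoculation.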

[7] = tested on: Fusarium proliferatum; assay: Example I: production of fumonisin FB1 by Fusarium proliferatum (microtitre plates); assay type: cell-based; conditions: 120 h
[8] = tested on: Fusarium graminearum; assay: microbe, parasite or virus in culture; assay type: cell-based
[9] = tested on: Botrytis cinerea; assay: Example P: in vivo test on Botrytis cinerea (gray mould on bean/protective); conditions: 48 h, bean, protective, 250 ppm active substance, assessed 2 days after inoculation, read-out: % Wirkungsgrad (activity level)
Method: Emulsifier: 1 part by weight alkylaryl polyglycol ethers For the preparation of a suitable active substance preparation, 1 part by weight of active substance is mixed with the stated quantities of solvent and emulsifier and the concentrate is diluted to the desired concentration with water. For the testing for protective activity, young plants are sprayed with the active substance preparation at the stated application dosage. After drying of the spray coating, 2 small pieces of agar with Botrytis cinerea growing on them are laid on every leaf. […] 2 days after the inoculation, the size of the infection blotches on the leaves is assessed.

[10] = tested on: Plasmopara viticola; assay: Example N: in vivo test on Plasmopara viticola (downy mildew, vine/protective); conditions: 144 h, vine, protective, assessment 6 days after inoculation, read-out: % Wirkungsgrad
Method: (§1) Emulsifier: 1 part by weight alkylaryl polyglycol ethers For the preparation of a suitable active substance preparation, 1 part by weight of active substance is mixed with the stated quantities of solvent and emulsifier and the concentrate is diluted to the desired concentration with water. For the testing for protective activity, young plants are sprayed with the active substance preparation at the stated application dosage. […] The plants are then moistened and placed in an incubation cabin for 1 day. 6 days after the inoculation, the assessment takes place.

[11] = tested on: Venturia inaequalis; assay: Example O: in vivo test on Venturia inaequalis (apple scab/protective); conditions: 240 h, protective, assessment 10 days after inoculation, read-out: % Wirkungsgrad
Method: as §1, with “10” for “The plants are then moistened and placed in an incubation cabin for 1 day. 6”

[12] = tested on: Fusarium graminearum; assay: whole plant or invertebrate; assay type: in vivo; conditions: in Hordeum vulgare, 120 h, read-out: % Wirkungsgrad (activity level)
[13] = LogPA (logP of the stated pure compound or, in a mixture, of the main isomer, 1-substituted 3-aryl-1H-pyrazole)
[14] = Fusarium proliferatum growth, OD 620, 5 days, read-out: % Inhibition des Pilzwachstums bei 50 μM
[15] = Fusarium proliferatum, 5 days at 20° C., HPLC-MS/MS, read-out: % Inhibition der FB1 produktion bei 50 μM
[16] = 72 h, read-out: % Inhibition des Pilzwachstums bei 50 μM
[17] = 168 h, read-out: % Inhibition der DON/AcDON produktion bei 50 μM

Row | Structure (SMILES) | chromatographic logP [1, 13] | pest or weed control at 500 ppm [2] | pest or weed control at 500 ppm [3] | pest or weed control at 500 ppm [4] | pest or weed control at 500 ppm [5] | pest or weed control at 500 ppm [6] | inhibition at 50 µM [7, 14] | inhibition at 50 µM [7, 15] | inhibition at 50 µM [8, 16] | inhibition at 50 µM [8, 17] | pest or weed control at 250 ppm [9] | pest or weed control at 100 ppm [10] | pest or weed control at 100 ppm [11] | chromatographic logP ([1]; LogPA) | pest or weed control at 1000 ppm [12]
1 | CC(C)(C)Cn1ncc(-c2ccncc2)c1-c1c(F)cccc1F [Compound 6] | 1.79 | 95% | 70% | 85% |  |  |  |  |  |  |  |  |  |  | 
2 | Fc1cccc(F)c1-c1nn(CC(F)(F)F)cc1-c1ccncc1 [Compound 12] | 1.39 | 95% |  | 77% |  |  |  |  |  |  |  |  |  |  | 
3 | Fc1cccc(F)c1-c1c(-c2ccncc2)cnn1C1CCC1 [Compound 15] | 1.49 | 87% | 75% | 97% | 95% | 95% |  |  |  |  |  |  |  |  | 
4 | Fc1cccc(F)c1-c1nn(C2CCCC2)cc1-c1ccncc1 [Compound 16] | 1.79 |  |  | 97% |  |  |  |  |  |  |  |  |  |  | 
5 | Fc1cccc(F)c1-c1nn(CC2CCCO2)cc1-c1ccncc1 (centres unmarked) [Compound 26] | 1.16 | 80% |  | 88% |  |  |  |  |  |  |  |  |  |  | 
6 | Fc1cccc(F)c1-c1c(-c2ccncc2)cnn1CC1CCCO1 (centres unmarked) [Compound 27] | 1.21 | 73% |  | 97% |  |  |  |  |  |  |  |  |  |  | 
7 | C#CCn1ccc2c(-c3cn(C(C)C)nc3-c3ccc(F)cc3)ccnc21 [Compound 47] | 3.63 |  |  | 77% |  |  | 0% | 98% |  |  |  |  |  |  | 
8 | CNC(=O)c1cc(-c2cn(C(C)C)nc2-c2ccc(F)cc2)ccn1 [Compound 53] | 2.74 | 98% |  | 91% |  |  | 0% | 96% |  |  |  |  |  |  | 
9 | CC(C)n1ncc(-c2ccnc(NC(=O)C(C)(C)C)c2)c1-c1ccc(F)cc1 [Compound 72] | 2.99 |  |  | 83% | 95% |  |  |  |  |  |  |  |  |  | 
10 | CC(=O)n1ccc2c(-c3cn(C4CCCCO4)nc3-c3ccc(F)cc3)ccnc21 (centres unmarked) [Compound 81] | 3.85 | 77% | 89% | 97% | 95% |  |  |  |  |  |  |  |  |  | 
11 | CCOC(=O)CCn1cc(-c2ccncc2)c(-c2ccc(F)cc2)n1 [Compound 132] | 1.29 | 82% |  | 86% |  |  |  |  |  |  |  |  |  |  | 
12 | CC(C)CC(=O)Nc1cc(-c2cn(C(C)C)nc2-c2ccc(F)cc2)ccn1 [Compound 160] | 2.82 |  |  |  | 95% | 100% |  |  | 100% | 100% | 100% | 79% | 94% |  | 
13 | CC(=O)Nc1cc(-c2cn(C(C)C)nc2-c2ccc(F)cc2)ccn1 [Compound 161] | 1.85 |  |  |  | 95% | 100% |  |  | 104% | 100% | 100% | 95% | 95% |  | 
14 | C#CCNc1nccc(-c2cn(CC(C)C)nc2-c2ccc(F)cc2)n1 [Compound 183] |  |  |  |  | 100% | 94% |  |  | 65% | 99% | 93% | 86% | 73% | 2.76 | 
15 | CC(C)n1cc(-c2ccnc(NC(=O)c3ccsc3)c2)c(-c2ccc(F)cc2)n1 [Compound 207] |  |  |  |  | 90% | 100% |  |  | 75% | 100% | 100% | 71% | 86% | 2.96 | 
16 | CCC(=O)Nc1cc(-c2cn(CCCl)nc2-c2ccc(F)cc2)ccn1 [Compound 219] |  |  |  |  |  | 100% | 97% | 100% | 97% | 100% | 100% | 95% | 96% | 2.01 | 
17 | O=C(Nc1cc(-c2cn(CC(F)F)nc2-c2ccc(F)cc2)ccn1)c1cccs1 [Compound 236] |  |  |  |  | 94% | 86% |  |  |  |  | 100% | 76% | 94% | 2.82 | 
18 | O=C(Nc1cc(-c2cn(CC(F)F)nc2-c2ccc(F)cc2)ccn1)c1ccccc1 [Compound 237] |  |  |  |  | 100% | 88% |  |  |  |  | 100% | 84% | 95% | 2.9 | 
19 | CCC(C)C(=O)Nc1cc(-c2cn(CC(F)F)nc2-c2ccc(F)cc2)ccn1 (centres unmarked) [Compound 239] |  |  |  |  | 100% | 95% |  |  |  |  |  | 88% | 98% | 2.62 | 
20 | O=C(CC1CC1)Nc1cc(-c2cn(CC3CC3(Cl)Cl)nc2-c2ccc(F)cc2)ccn1 (centres unmarked) [Compound 251] |  |  |  |  | 94% | 96% |  |  |  |  | 95% |  | 84% | 3.3 | 83%
21 | O=C(Nc1cc(-c2cn(CC3CC3(Cl)Cl)nc2-c2ccc(F)cc2)ccn1)C1CC1 (centres unmarked) [Compound 260] |  |  |  |  | 90% | 95% |  |  | 5% | 99% | 100% | 70% | 94% | 2.67 | 

From patent US20110183978A1, “Phenylpyri(mi)dinylazoles” (Bayer CropScience AG, priority 2009, published 2011)
